Data published in BindingDB's records for doi:10.1021/jm040099a (Johnson & Johnson Pharmaceutical, 2005).

How the values were obtained:
[1] = molecular target: Vascular endothelial growth factor receptor 2 (Rattus norvegicus, UniProt O08775); experiment: Kinase Inhibition Assay
Procedure: (§1) The enzyme was assayed with a biotinylated peptide substrate and test compounds in the presence of 5 uM ATP/[gamma-33P]ATP in a streptavidin coated FlashPlate (Perkin-Elmer, Boston, MA). Inhibition of the enzymatic activity due to the compound was measured by observing a reduced amount of 33P-gamma-ATP incorporated into the immobilized peptide relative to untreated controls. Linear regression analysis of the percent of inhibition by the test compound was used to calculate IC50 values.

[2] = molecular target: Cyclin-dependent kinase/G2/mitotic-specific cyclin- 1 (Homo sapiens, UniProt P06493); experiment: Kinase Inhibition Assay; conditions: pH 8; 30 °C
Sequence of Cyclin-dependent kinase/G2/mitotic-specific cyclin- 1 (P06493 whole entry): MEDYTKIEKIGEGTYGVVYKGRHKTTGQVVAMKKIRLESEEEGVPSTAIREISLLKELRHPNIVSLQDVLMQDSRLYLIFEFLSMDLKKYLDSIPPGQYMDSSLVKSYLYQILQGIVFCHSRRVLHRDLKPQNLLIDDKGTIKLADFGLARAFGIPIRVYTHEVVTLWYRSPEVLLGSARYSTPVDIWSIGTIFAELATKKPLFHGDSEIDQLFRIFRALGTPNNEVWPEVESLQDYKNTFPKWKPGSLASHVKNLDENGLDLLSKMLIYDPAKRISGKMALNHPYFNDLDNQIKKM
Sequence of Cyclin-dependent kinase/G2/mitotic-specific cyclin- 1 (P14635 whole entry, further chain): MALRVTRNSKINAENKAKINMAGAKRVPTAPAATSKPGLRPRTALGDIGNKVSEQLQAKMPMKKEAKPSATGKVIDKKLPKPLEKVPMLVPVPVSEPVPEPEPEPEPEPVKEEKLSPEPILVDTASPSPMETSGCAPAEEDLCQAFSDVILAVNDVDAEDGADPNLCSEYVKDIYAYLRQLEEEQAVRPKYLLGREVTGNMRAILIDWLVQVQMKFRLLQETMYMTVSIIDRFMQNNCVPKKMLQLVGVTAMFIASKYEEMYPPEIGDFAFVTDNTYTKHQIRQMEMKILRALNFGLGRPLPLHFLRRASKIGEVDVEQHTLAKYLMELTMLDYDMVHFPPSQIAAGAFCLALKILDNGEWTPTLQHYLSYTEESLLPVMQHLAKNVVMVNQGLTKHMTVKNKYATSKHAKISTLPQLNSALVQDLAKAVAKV
Procedure: as §1

Sequence of Vascular endothelial growth factor receptor 2 (O08775 whole entry): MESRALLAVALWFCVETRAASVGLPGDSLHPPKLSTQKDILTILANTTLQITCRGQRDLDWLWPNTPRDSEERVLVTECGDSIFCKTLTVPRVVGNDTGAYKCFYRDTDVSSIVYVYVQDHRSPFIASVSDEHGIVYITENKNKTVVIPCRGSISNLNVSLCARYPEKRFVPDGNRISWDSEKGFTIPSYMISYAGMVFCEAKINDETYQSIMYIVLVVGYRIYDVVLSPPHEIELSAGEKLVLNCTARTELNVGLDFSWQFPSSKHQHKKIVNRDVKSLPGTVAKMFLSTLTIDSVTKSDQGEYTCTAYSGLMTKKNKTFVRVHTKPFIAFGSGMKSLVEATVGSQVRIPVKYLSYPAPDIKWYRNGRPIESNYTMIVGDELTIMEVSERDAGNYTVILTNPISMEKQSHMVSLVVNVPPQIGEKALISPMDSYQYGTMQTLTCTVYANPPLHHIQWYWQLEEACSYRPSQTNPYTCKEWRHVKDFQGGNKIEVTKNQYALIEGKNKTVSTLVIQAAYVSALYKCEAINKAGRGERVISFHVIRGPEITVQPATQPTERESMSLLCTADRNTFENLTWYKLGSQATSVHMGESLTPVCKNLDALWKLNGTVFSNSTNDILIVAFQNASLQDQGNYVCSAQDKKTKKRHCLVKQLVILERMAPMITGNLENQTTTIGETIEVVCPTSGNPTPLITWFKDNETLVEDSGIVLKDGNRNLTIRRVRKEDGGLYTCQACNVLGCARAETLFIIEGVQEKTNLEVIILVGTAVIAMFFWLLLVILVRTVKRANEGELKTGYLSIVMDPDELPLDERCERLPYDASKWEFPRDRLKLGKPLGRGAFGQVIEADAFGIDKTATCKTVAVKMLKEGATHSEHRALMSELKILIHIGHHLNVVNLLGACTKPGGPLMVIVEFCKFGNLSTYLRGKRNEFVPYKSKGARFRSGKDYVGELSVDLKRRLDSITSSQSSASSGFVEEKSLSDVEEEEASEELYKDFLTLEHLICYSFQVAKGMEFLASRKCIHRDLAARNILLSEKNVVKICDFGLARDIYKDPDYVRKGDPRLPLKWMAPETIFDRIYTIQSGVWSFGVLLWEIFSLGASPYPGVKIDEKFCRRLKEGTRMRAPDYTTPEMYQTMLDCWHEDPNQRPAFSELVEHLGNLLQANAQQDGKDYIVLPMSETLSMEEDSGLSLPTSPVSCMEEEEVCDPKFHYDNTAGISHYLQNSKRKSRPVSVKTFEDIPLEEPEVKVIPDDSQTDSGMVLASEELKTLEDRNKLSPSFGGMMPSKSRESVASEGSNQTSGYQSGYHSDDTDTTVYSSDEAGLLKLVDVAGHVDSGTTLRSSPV

Row | Compound | IC50 [1] | IC50 [2]
1 | OCCCNc1cncc(-c2ncc(Nc3cccc(Cl)c3)cn2)c1 [3-[(5-{5-[(3-chlorophenyl)amino]pyrimidin-2-yl}pyridin-3-yl)amino]propan-1-ol] | > 10 µM | 
2 | OCCCNc1ccc(-c2cncc(Nc3cccc(Cl)c3)n2)nc1 [3-{[6-[6-((3-Chlorophenyl)amino)pyrazin-2-yl]pyridin-3-yl]amino}propan-1-ol] | > 10 µM | 
3 | OCCCNc1cncc(-c2cnc(Nc3cccc(Cl)c3)cn2)c1 [3-[[5-[5-[(3-chlorophenyl)amino]pyrazinyl]-3-pyridinyl]amino]-1-propanol] | > 10 µM | 
4 | OCCCNc1cncc(-c2ncncc2Nc2cccc(Cl)c2)c1 [3-[[5-[5-[(3-Chlorophenyl)amino]-4-pyrimidinyl]-3-pyridinyl]amino]-1-propanol] | > 10 µM | > 10 µM
5 | OCCCNc1cncc(-c2cc(Nc3cccc(Cl)c3)ncn2)c1 [3-[(5-{6-[(3-chlorophenyl)amino]pyrimidin-4-yl}pyridin-3-yl)amino]propan-1-ol] | > 10 µM | 
6 | OCCCNc1cccc(-c2cncc(Nc3cccc(Cl)c3)n2)n1 [3-[(6-{6-[(3-chlorophenyl)amino]pyrazin-2-yl}pyridin-2-yl)amino]propan-1-ol] | > 10 µM | 
